Laboratory results from patent US20260001875A1, “AMINOPYRIMIDINYL DERIVATIVES FOR THE TREATMENT OF PARKINSON'S DISEASE” (UNIVERSITY OF DUNDEE, priority 2022, published 2026).
≈ marks a conversion by molar mass, not a printed value. Entries after “also recorded” stand apart in the source; their conditions may differ. Where two headings read alike, the source gives them in different places.

Assays:
[1] = Pharmacokinetic study in mice (plasma, brain, CSF); format: in vivo, mouse; conditions: for AUC(0-inf) / AUC(0-t) / half-life: male, C57BL/6, mouse; for half-life: read-out: metabolic half-life (converted)
Procedure: PK profiling was outsourced and undertaken by Shanghai ChemPartner Co., Ltd. All animal experiments performed were conducted in compliance with the Institutional Animal Care and Use Committee (IACUC) and the Office of Laboratory Animal Welfare (OLAW) guidelines. Six- to eight-week-old C57BL/6 male mice purchased from Jihui Laboratory Animal Co. LTD were used in the study. […] The animals were restrained manually at the designated time points (0.083, 0.25, 0.5, 1, 2, 4, and 8 h); approximately, 110 μL of blood sample was collected via facial vein into K2EDTA tubes. Three mice per time point were used, resulting in a total of 21 mice for each administration route. The blood sample was put on ice and centrifuged at 2000 g for 5 min to obtain the plasma sample within 15 min. The plasma, brain, CSF samples were stored at approximately −70° C. until analysis. A 30 μL aliquot of plasma was added with 200 μL of internal standard (Glipozode, 40 ng/mL) in MeCN with 5% citri. The mixture was then vortexed for 1 min and then centrifuged for 10 min at 5800 rpm. The supernatant (100 μL) was transferred to a new plate. The solvent (1 μL) was injected to LC-MS/MS. LC-MS/MS instrument used: SCIEX LC-MS/MS-49 (Triple Quad 6500+). Data was analyzed by WinNonLin and Microsoft Excel.

Solubility = format: physicochemical
Caco-2 mono-cell layer = test: Caco-2 permeability; format: in vitro ADME
Caco-2 permeability = format: in vitro ADME; conditions: human, Caco-2
[2] = Stability in mouse plasma; format: in vitro ADME; conditions: read-out: T1/2 in mouse plasma
[3] = CSF, intravenous 5 mg/Kg single dose
[4] = brain, gavage (oral) 30 mg/Kg single dose
[5] = brain, intraperitoneal 30 mg/Kg single dose
[6] = brain, intravenous 5 mg/Kg single dose
[7] = ip, brain, intraperitoneal 30 mg/Kg single dose
[8] = gavage (oral) 30 mg/Kg single dose
[9] = intraperitoneal 30 mg/Kg single dose

**Q.** With `CNc1nc(Nc2ccc(C(=O)N3CCN(C[C@H]4CC[C@H](CSC(C)(C)[C@H](NC(=O)C5(F)CC5)C(=O)N5C[C@H](O)CC5C(=O)NCc5ccc(-c6scnc6C)cc5)CC4)CC3)cc2OC)ncc1Cl` (stereo partly drawn) [XL01126, (2S,4R)-1-((R)-3-((((1R,4R)-4-((4-(4-((5-chloro-4-(methylamino)pyrimidin-2-yl)amino)-3-methoxybenzoyl)piperazin-1-yl)methyl)cyclohexyl)methyl)thio)-2-(1-fluorocyclopropane-1-carboxamido)-3-methylbutanoyl)-4-hydroxy-N-(4-(4-methylthiazol-5-yl)benzyl)pyrrolidine-2-carboxamide] as the molecule, how does the “maximum concentration in cerebrospinal fluid (CSF)” value [1, 3] read?
**A.** 27.4 ng/mL

**Q.** And the “time of maximum concentration in CSF” value [1, 3]?
**A.** 0.083 h

**Q.** What about the “maximum concentration in brain tissue” value [1, 4] of the same molecule?
**A.** 27 ng/mL

**Q.** What about the “time of maximum concentration in brain tissue” value (“time … in brain tissue” for short) [1, 4] of the same molecule?
**A.** 2 h

**Q.** What about the “maximum concentration in brain tissue” value [1, 5] of the same molecule?
**A.** 218 ng/mL

**Q.** And the “time … in brain tissue” value [1, 5]?
**A.** 0.5 h

**Q.** What about the “maximum concentration in brain tissue” value [1, 6] of the same molecule?
**A.** 155 ng/mL

**Q.** What about the “time … in brain tissue” value [1, 6] of the same molecule?
**A.** 0.083 h

**Q.** What about the “reaches CSF (in words)” value ([1]; intraperitoneal 30 mg/Kg and orally 30 mg/Kg) of the same molecule?
**A.** also reaches CSF

**Q.** What about the “blood brain barrier penetration (in words)” value ([1]; intravenous 5 mg/Kg, intraperitoneal 30 mg/Kg, oral 30 mg/Kg) of the same molecule?
**A.** capable of penetrating blood brain barrier; also recorded: can penetrant blood brain barrier

**Q.** What about the AUC(0-inf) [1, 3] of the same molecule?
**A.** 240 ng·h/mL

**Q.** And the AUC(0-t) [1, 3]?
**A.** 107 ng·h/mL

**Q.** And the half-life [1, 3]?
**A.** 8.59 h

**Q.** And the AUC(0-inf) [1, 4]?
**A.** 402 ng·h/mL

**Q.** And the AUC(0-t) [1, 4]?
**A.** 142 ng·h/mL

**Q.** And the half-life [1, 4]?
**A.** 10.7 h

**Q.** What about the AUC(0-inf) [1, 6] of the same molecule?
**A.** 349 ng·h/mL

**Q.** And the AUC(0-t) [1, 6]?
**A.** 258 ng·h/mL

**Q.** And the half-life [1, 6]?
**A.** 3.67 h

**Q.** And the AUC(0-inf) [1, 7]?
**A.** 884 ng·h/mL

**Q.** What about the AUC(0-t) [1, 7] of the same molecule?
**A.** 752 ng·h/mL

**Q.** And the half-life [1, 7]?
**A.** 2.79 h

**Q.** And the maximum plasma concentration [1, 8]?
**A.** 3620 ng/mL

**Q.** And the “time of maximum plasma concentration” value [1, 8]?
**A.** 2 h

**Q.** What about the maximum plasma concentration [1, 9] of the same molecule?
**A.** 7700 ng/mL

**Q.** And the “time of maximum plasma concentration” value [1, 9]?
**A.** 0.25 h

**Q.** What about the solubility (Solubility; FeSSIF (fed state simulated intestinal fluid), fessif, Fed State Simulated Intestinal Fluid pH 5.8, read-out: Solubility in FeSSIF (pH 5.8)) of the same molecule?
**A.** 26.1 µM (≈ 26.6 µg/mL)

**Q.** And the solubility (Solubility; aqueous buffer, PBS pH 7.4, read-out: Solubility in PBS (pH 7.4))?
**A.** 0.55 µM (≈ 0.561 µg/mL)

**Q.** And the “penetration of Caco-2 mono-cell layer (in words)” value (Caco-2 mono-cell layer)?
**A.** can penetrant Caco-2 mono-cell layer; also recorded: can penetrate Caco-2 mono-cell layer

**Q.** And the Papp A→B (Caco-2 permeability; A − B)?
**A.** < 0.74 ×10⁻⁶ cm/s

**Q.** And the Papp B→A (Caco-2 permeability; B − A)?
**A.** < 1.43 ×10⁻⁶ cm/s

**Q.** And the half-life [2]?
**A.** 1.8 h
